# Measured values from patent US20200009168A1, “MICROBIOME REGULATORS AND RELATED USES THEREOF” (KALEIDO BIOSCIENCES, INC., priority 2015, published 2020).
# Columns and labels:
# Assay type in all cases: cell-based
# [1] = system: Parabacteroides distasonis ATCC 8503 "PDI.6"; test: Sugar-supported growth of commensal bacteria, PDI.6; settings: 0.5% w/v sugar, 37° C., 18-24 hours, anaerobic; OD600 divided by OD600 with 0.5% w/v dextrose
# Protocol: (§1) An in vitro assay was performed to assess the ability of various bacterial strains, including commensals of the gastrointestinal tract, to utilize different sugars as growth substrates. This assay was designed to assess the ability of selected natural monosaccharides, disaccharides and synthetic sugars to promote the growth of microbiota associated with a healthy state. Bacterial strains were handled at all steps in an anaerobic chamber (AS-580, Anaerobe Systems) featuring a palladium catalyst. The chamber was initially made anaerobic by purging with an anaerobic gas mixture of 5% hydrogen, 5% carbon dioxide and 90% nitrogen and subsequently maintained in an anaerobic state using this same anaerobic gas mixture. Anaerobicity of the chamber was confirmed daily using Oxoid anaerobic indicator strips that change color in the presence of oxygen. All culture media, assay plates, other reagents and plastic consumables were pre-reduced in the anaerobic chamber for 24-48 hours prior to contact with bacteria. Sugars were prepared at 5% w/v in water, filter-sterilized and added to Costar 3370 assay plates for a final concentration of 0.5% w/v in the assay, with each microbiome regulator assayed in two non-adjacent wells and dextrose and water supplied as positive and negative controls.
# (§2) Bacterial isolates were obtained from the American Type Culture Collection (ATCC) and Leibniz Institute DSMZ-German Institute of Microorganisms and Cell Cultures (DSMZ). Cultures of the Bacteroidetes Bacteroides caccae ATCC 43185 “BCA.26”, Bacteroides thetaiotaomicron ATCC 29741 “BTH.8”, Bacteroides cellulosilyticus DSM 14838 “BCE.71”, Parabacteroides distasonis ATCC 8503 “PDI.6” and Prevotella copri DSM 18205 “PCO.72”; the Clostridiales Clostridium scindens ATCC 35704 “CSC.32”, Dorea formicigenerans ATCC 27755 “DFO.36” and Ruminococcus obeum ATCC 29714 “ROB.74”; and the Bifidobacteria Bifidobacterium longum ATCC 15707 “BLO.16” and Bifidobacterium longum DSM 20088 “BLO.83”, were grown anaerobically in Chopped Meat Glucose broth (CMG, Anaerobe Systems), a pre-reduced enriched medium including lean ground beef, enzymatic digest of casein, yeast extract, potassium phosphate, dextrose, cysteine, hemin and Vitamin K1, for 18-48 hours at 37° C. Inocula were prepared by determining the optical density of each culture at […] (OD600) in a Costar 3370 polystyrene 96-well flat-bottom assay plate using a Biotek Synergy 2 plate reader with Gen5 2.0 All-In-One Microplate Reader Software according to manufacturer's protocol, and diluting the cells to OD600 0.01 final in defined and semi-defined media that were prepared without sugars. D. formicigenerans, P. distasonis and B. longum isolates were tested in 900 mg/L sodium chloride, 26 mg/L calcium chloride dihydrate, 20 mg/L magnesium chloride hexahydrate, 10 mg/L manganese chloride tetrahydrate, 40 mg/L ammonium sulfate, 4 mg/L iron sulfate heptahydrate, 1 mg/L cobalt chloride hexahydrate, 300 mg/L potassium phosphate dibasic, 1.5 g/L sodium phosphate dibasic, 5 g/L sodium bicarbonate, 0.125 mg/L biotin, 1 mg/L pyridoxine, […], 75 mg/L histidine, 75 mg/L glycine, 75 mg/L tryptophan, 150 mg/L arginine, 150 mg/L methionine, 150 mg/L threonine, 225 mg/L valine, 225 mg/L isoleucine, 300 mg/L leucine, 400 mg/L cysteine, and 450 mg/L proline (Theriot C M et al. Nat Commun. 2014; 5:3114), supplemented with 0-3.5% (v/v) CMG. B. thetaiotaomicron, B. caccae and B. cellulosyliticus were tested in 100 mM potassium phosphate buffer (pH 7.2), 15 mM sodium chloride, 8.5 mM ammonium sulfate, 4 mM L-cysteine, 1.9 μM hematin, 200 μM L-histidine, 100 μM magnesium chloride, 1.4 μM iron sulfate heptahydrate, 50 μM calcium chloride, 1 μg/mL vitamin K3 and 5 ng/mL vitamin B12 (Martens E C et al. Cell Host & Microbe 2008; 4, 447-457). […]
# panel of 10 commensals = test: Sugar-supported growth, whole panel of 10 commensals; settings: 0.5% w/v sugar, summary in words
# Protocol: as §1, §2
# [2] = system: Prevotella copri DSM 18205 "PCO.72"; test: Sugar-supported growth of commensal bacteria, PCO.72; settings: 0.5% w/v sugar, 37° C., 18-24 hours, anaerobic; OD600 divided by OD600 with 0.5% w/v dextrose
# Protocol: as §1, §2
# [3] = system: Bacteroides cellulosilyticus DSM 14838 "BCE.71"; test: Sugar-supported growth of commensal bacteria, BCE.71; settings: 0.5% w/v sugar, 37° C., 18-24 hours, anaerobic; OD600 divided by OD600 with 0.5% w/v dextrose
# Protocol: as §1, §2
# [4] = system: Bacteroides caccae ATCC 43185 "BCA.26"; test: Sugar-supported growth of commensal bacteria, BCA.26; settings: 0.5% w/v sugar, 37° C., 18-24 hours, anaerobic; OD600 divided by OD600 with 0.5% w/v dextrose
# Protocol: as §1, §2
# [5] = system: Clostridium scindens ATCC 35704 "CSC.32"; test: Sugar-supported growth of commensal bacteria, CSC.32; settings: 0.5% w/v sugar, 37° C., 18-24 hours, anaerobic; OD600 divided by OD600 with 0.5% w/v dextrose
# Protocol: as §1, §2
# [6] = system: Bacteroides thetaiotaomicron ATCC 29741 "BTH.8"; test: Sugar-supported growth of commensal bacteria, BTH.8; settings: 0.5% w/v sugar, 37° C., 18-24 hours, anaerobic; OD600 divided by OD600 with 0.5% w/v dextrose
# Protocol: as §1, §2
# [7] = system: Bifidobacterium longum ATCC 15707 "BLO.16"; test: Sugar-supported growth of commensal bacteria, BLO.16; settings: 0.5% w/v sugar, 37° C., 18-24 hours, anaerobic; OD600 divided by OD600 with 0.5% w/v dextrose
# Protocol: as §1, §2
# [8] = system: Dorea formicigenerans ATCC 27755 "DFO.36"; test: Sugar-supported growth of commensal bacteria, DFO.36; settings: 0.5% w/v sugar, 37° C., 18-24 hours, anaerobic; OD600 divided by OD600 with 0.5% w/v dextrose
# Protocol: as §1, §2
# [9] = system: Ruminococcus obeum ATCC 29714 "ROB.74"; test: Sugar-supported growth of commensal bacteria, ROB.74; settings: 0.5% w/v sugar, 37° C., 18-24 hours, anaerobic; OD600 divided by OD600 with 0.5% w/v dextrose
# Protocol: as §1, §2
Compound,"Average Normalized Growth (NGV), PDI.6 [1]",taxa or strains of the commensal panel whose growth was supported (panel of 10 commensals),"Average Normalized Growth (NGV), PCO.72 [2]","Average Normalized Growth (NGV), BCE.71 [3]","Average Normalized Growth (NGV), BCA.26 [4]","Average Normalized Growth (NGV), CSC.32 [5]","Average Normalized Growth (NGV), BTH.8 [6]","Average Normalized Growth (NGV), BLO.16 [7]","Average Normalized Growth (NGV), DFO.36 [8]","Average Normalized Growth (NGV), ROB.74 [9]"
OC[C@H]1O[C@@H](O[C@@H]2[C@@H](CO)OC(O)(CO)[C@H]2O)[C@H](O)[C@@H](O)[C@H]1O (mixture of isomers) [lactulose],+ (0.2-0.6),supported growth of some strains from the taxa Bacteroidetes and Bifidobacteria,++ (0.6-1),++ (0.6-1),++ (0.6-1),− (<0.2),− (<0.2),–,–,–
OC[C@H]1O[C@H](O[C@H]2[C@H](O)[C@@H](O)[C@H](O)O[C@@H]2CO)[C@H](O)[C@@H](O)[C@@H]1O [D (+) maltose],++ (0.6-1),"supported some commensals from the taxa Bacteroidetes, Firmicutes, including Lachnospiraceae, and Bifidobacteria",+++ (>1),++ (0.6-1),+ (0.2-0.6),− (<0.2),+++ (>1),+++ (>1),+++ (>1),–
O=C[C@@H](O)[C@H](O)[C@H](O)CO [D (−) arabinose],− (<0.2),supported some commensals from the taxa Bacteroidetes and Firmicutes,− (<0.2),+ (0.2-0.6),++ (0.6-1),++ (0.6-1),++ (0.6-1),− (<0.2),− (<0.2),++ (0.6-1)
OC[C@@H](O)[C@@H](O)[C@H](O)[C@H](O)CO [D-mannitol],− (<0.2),supported growth of CSC.32 alone among the panel of 10 commensals,− (<0.2),− (<0.2),− (<0.2),+ (0.2-0.6),− (<0.2),− (<0.2),–,–
O=C[C@@H](O)[C@@H](O)[C@H](O)[C@H](O)CO [D-mannose],+++ (>1),supported some commensals from the taxa Bacteroidetes and Firmicutes,− (<0.2),+++ (>1),+++ (>1),+ (0.2-0.6),+++ (>1),− (<0.2),− (<0.2),++ (0.6-1)
OC[C@@H](O)[C@@H](O)[C@H](O)[C@@H](O)CO [D-sorbitol],–,supported growth of CSC.32 alone among the panel of 10 commensals,–,–,–,–,–,–,–,–
